Values quoted from earlier work, collected in PubChem BioAssay AID1259409 (Chemical Carcinogenesis Research Information System (CCRIS), 2018).

Tested on: rodent chemically induced tumor inhibition, incidence and multiplicity
Assay: CCRIS tumor inhibitor studies
Conditions: Route [Inhibitor]: ORAL, Species: RAT, Promoter: NONE USED

## O=C1O[C@H]([C@@H](O)CO)C(O)=C1O
Carcinogen: N-ETHYL-N-(4-HYDROXYBUTYL)NITROSAMINE, 54897-62-0, Dose [Inhibitor]: 5% IN BASAL DIET ADMINISTERED SIMULTANEOUSLY WITH CARCINOGEN DOSE FOR 20 WK (STUDY DURATION: 20 WK), Strain/Sex: F344/MALE, Target Tissue: Type of Lesion: BLADDER: PAPILLOMA, Dose [Carcinogen]: 0.021% IN DRINKING WATER FOR 20 WK
  tumour outcome (control, treated, inhibition, significance): 14/15 (93%), 12/15 (80%), 14%, not significant
Carcinogen: N-METHYL-N-NITROSOUREA, 684-93-5, Dose [Inhibitor]: 0, 5% IN DIET BEGINNING POST CARCINOGEN TREATMENT AND CONTINUING FOR 23 WK (STUDY DURATION: 25 WK), Strain/Sex: F344/MALE, Target Tissue: Type of Lesion: FORESTOMACH: PAPILLOMA, Dose [Carcinogen]: 50 MG/KG 4/2 WK
  tumour outcome (control, treated, inhibition, significance): 8/17 (47%), 7/20 (35%), 26%, not calculated
Carcinogen: N-METHYL-N-NITROSOUREA, 684-93-5, Dose [Inhibitor]: 0, 5% IN DIET BEGINNING POST CARCINOGEN TREATMENT AND CONTINUING FOR 23 WK (STUDY DURATION: 25 WK), Strain/Sex: F344/MALE, Target Tissue: Type of Lesion: FORESTOMACH: SQUAMOUS CELL CARCINOMA, Dose [Carcinogen]: 50 MG/KG 4/2 WK
  tumour outcome (control, treated, inhibition, significance): 2/17 (12%), 2/20 (10%), 17%, not calculated
Carcinogen: N-METHYL-N-NITROSOUREA, 684-93-5, Dose [Inhibitor]: 0, 5% IN DIET BEGINNING POST CARCINOGEN TREATMENT AND CONTINUING FOR 23 WK (STUDY DURATION: 25 WK), Strain/Sex: F344/MALE, Target Tissue: Type of Lesion: HEMATOPOIETIC SYSTEM: LYMPHOMA OR LEUKEMIA, Dose [Carcinogen]: 50 MG/KG 4/2 WK
  tumour outcome (control, treated, inhibition, significance): 3/17 (18%), 4/20 (20%), -11%, not calculated
Carcinogen: N-METHYL-N-NITROSOUREA, 684-93-5, Dose [Inhibitor]: 0, 5% IN DIET BEGINNING POST CARCINOGEN TREATMENT AND CONTINUING FOR 23 WK (STUDY DURATION: 25 WK), Strain/Sex: F344/MALE, Target Tissue: Type of Lesion: SMALL INTESTINE: ADENOCARCINOMA, Dose [Carcinogen]: 50 MG/KG 4/2 WK
  tumour outcome (control, treated, inhibition, significance): 9/17 (53%), 0/20 (0%), 100%, not calculated
Carcinogen: N-METHYL-N-NITROSOUREA, 684-93-5, Dose [Inhibitor]: 0, 5% IN DIET BEGINNING POST CARCINOGEN TREATMENT AND CONTINUING FOR 23 WK (STUDY DURATION: 25 WK), Strain/Sex: F344/MALE, Target Tissue: Type of Lesion: SMALL INTESTINE: ADENOMA, Dose [Carcinogen]: 50 MG/KG 4/2 WK
  tumour outcome (control, treated, inhibition, significance): 10/17 (59%), 16/20 (80%), -36%, not calculated
Carcinogen: N-METHYL-N-NITROSOUREA, 684-93-5, Dose [Inhibitor]: 0, 5% IN DIET BEGINNING POST CARCINOGEN TREATMENT AND CONTINUING FOR 23 WK (STUDY DURATION: 25 WK), Strain/Sex: F344/MALE, Target Tissue: Type of Lesion: THYROID: ADENOCARCINOMA, Dose [Carcinogen]: 50 MG/KG 4/2 WK
  tumour outcome (control, treated, inhibition, significance): 1/17 (6%), 0/20 (0%), 100%, not calculated
Carcinogen: N-METHYL-N-NITROSOUREA, 684-93-5, Dose [Inhibitor]: 0, 5% IN DIET BEGINNING POST CARCINOGEN TREATMENT AND CONTINUING FOR 23 WK (STUDY DURATION: 25 WK), Strain/Sex: F344/MALE, Target Tissue: Type of Lesion: THYROID: ADENOMA, Dose [Carcinogen]: 50 MG/KG 4/2 WK
  tumour outcome (control, treated, inhibition, significance): 3/17 (18%), 6/20 (30%), -67%, not calculated
Carcinogen: N-METHYL-N-NITROSOUREA, 684-93-5, Dose [Inhibitor]: 0, 5% IN DIET BEGINNING POST CARCINOGEN TREATMENT AND CONTINUING FOR 23 WK (STUDY DURATION: 25 WK), Strain/Sex: F344/MALE, Target Tissue: Type of Lesion: TONGUE: PAPILLOMA, Dose [Carcinogen]: 50 MG/KG 4/2 WK
  tumour outcome (control, treated, inhibition, significance): 2/17 (12%), 4/20 (20%), -67%, not calculated
Carcinogen: N-METHYL-N-NITROSOUREA, 684-93-5, Dose [Inhibitor]: 0, 5% IN DIET BEGINNING POST CARCINOGEN TREATMENT AND CONTINUING FOR 23 WK (STUDY DURATION: 25 WK), Strain/Sex: F344/MALE, Target Tissue: Type of Lesion: TONGUE: SQUAMOUS CELL CARCINOMA, Dose [Carcinogen]: 50 MG/KG 4/2 WK
  tumour outcome (control, treated, inhibition, significance): 2/17 (12%), 2/20 (10%), 17%, not calculated
Carcinogen: N-METHYL-N-NITROSOUREA, 684-93-5, Dose [Inhibitor]: 0, 5% IN DIET BEGINNING POST CARCINOGEN TREATMENT AND CONTINUING FOR 23 WK (STUDY DURATION: 25 WK), Strain/Sex: F344/MALE, Target Tissue: Type of Lesion: URINARY BLADDER: PAPILLOMA, Dose [Carcinogen]: 50 MG/KG 4/2 WK
  tumour outcome (control, treated, inhibition, significance): 2/17 (12%), 10/20 (50%), -316%, not calculated
Carcinogen: N-METHYL-N-NITROSOUREA, 684-93-5, Dose [Inhibitor]: 0, 5% IN DIET BEGINNING POST CARCINOGEN TREATMENT AND CONTINUING FOR 23 WK (STUDY DURATION: 25 WK), Strain/Sex: F344/MALE, Target Tissue: Type of Lesion: URINARY BLADDER: TRANSITIONAL CELL CARCINOMA, Dose [Carcinogen]: 50 MG/KG 4/2 WK
  outcome: 0/17 (0%), 2/20 (10%), -100%, not calculated
Carcinogen: N-METHYL-N-NITROSOUREA, 684-93-5, Dose [Inhibitor]: 1% IN 20% FAT DIET DAILY STARTING 2 WK BEFORE START OF CARCINOGEN TREATMENT AND CONTINUING FOR DURATION OF STUDY (STUDY, Strain/Sex: F344/FEMALE, Target Tissue: Type of Lesion: COLON: ADENOMA, ADENOCARCINOMA, Dose [Carcinogen]: 2 MG 2/WK FOR 2 WK
  tumour outcome (control, treated, inhibition, significance): 42%, 46%, -10%, not significant
